Data: patent US8742135B1, “Compound amycolamicin, method for producing the same, and use of the same” (Microbial Chemistry Research Foundation, priority 2009, dated 2014)
≈ marks a conversion by molar mass, not a printed value.

Columns and labels:
Assay type in all cases: cell-based
[1] = tested on: Haemophilus infulenzae IID938; assay: MIC, Muller Hinton agar with sheep blood, 5% CO2 (Test Example 2); conditions: Muller Hinton agar + sheep blood 5% by volume
[2] = tested on: Pasteurella multocida No. 6; assay: MIC, brain heart infusion agar, multiple dilution method (Test Example 3); conditions: brain heart infusion agar medium
Procedure: (§1) According to the standard method of Japanese Society of Chemotherapy, the amycolamicin was measured for antimicrobial spectrum against bacteria causing pneumonia in domestic livestock in the brain heart infusion agar medium by the multiple dilution method.

M. haemolytica N811 = assay: as above; conditions: Mannheimia haemolytica, brain heart infusion agar medium
Procedure: as §1

[3] = tested on: Mannheimia haemolytica N791; assay: as above; conditions: brain heart infusion agar medium
Procedure: as §1

P. multocida TS-8 = assay: as above; conditions: Pasteurella multocida, TS8, brain heart infusion agar medium
Procedure: as §1

P. multocida Kobe = assay: as above; conditions: Pasteurella multocida, brain heart infusion agar medium
Procedure: as §1

P. multocida M-17 = assay: as above; conditions: Pasteurella multocida, M17, brain heart infusion agar medium
Procedure: as §1

H. infulenzae T196 = assay: MIC, Muller Hinton agar with sheep blood, 5% CO2 (Test Example 2); conditions: Haemophilus, Muller Hinton agar + sheep blood 5% by volume
H. infulenzae IID988 = assay: as above; conditions: Haemophilus, Muller Hinton agar + sheep blood 5% by volume
[4] = tested on: A. pleuropneumoniae CH-2(H4024); assay: MIC, Muller Hinton agar with Fields enrichment, 5% CO2 (Test Example 4); conditions: Actinobacillus pleuropneumoniae, Muller Hinton agar + Fields enrichment 5% by volume
Procedure: (§2) According to the standard method of Japanese Society of Chemotherapy, the amycolamicin was measured for antimicrobial spectrum against bacteria causing pneumonia in domestic livestock other than those listed in Table 3 in the Muller Hinton agar medium supplemented with Fields enrichment (5% by volume) by the multiple dilution method in an atmosphere of 5% by volume CO2.

[5] = tested on: A. pleuropneumoniae HPT-1; assay: as above; conditions: Actinobacillus pleuropneumoniae, HPT1, Muller Hinton agar + Fields enrichment 5% by volume
Procedure: as §2

[6] = tested on: A. pleuropneumoniae SHP-17; assay: as above; conditions: Actinobacillus pleuropneumoniae, SHP17, Muller Hinton agar + Fields enrichment 5% by volume
Procedure: as §2

A. pleuropneumoniae CH-1 = assay: as above; conditions: Actinobacillus pleuropneumoniae, CH1, Muller Hinton agar + Fields enrichment 5% by volume
Procedure: as §2

A. pleuropneumoniae 6H-8 = assay: as above; conditions: Actinobacillus pleuropneumoniae, 6H8, Muller Hinton agar + Fields enrichment 5% by volume
Procedure: as §2

[7] = tested on: A. pleuropneumoniae O-223; assay: as above; conditions: Actinobacillus pleuropneumoniae, O223, Muller Hinton agar + Fields enrichment 5% by volume
Procedure: as §2

[8] = tested on: A. pleuropneumoniae Shop1421; assay: as above; conditions: Actinobacillus pleuropneumoniae, Muller Hinton agar + Fields enrichment 5% by volume
Procedure: as §2

[9] = tested on: Actinobacillus pleuropneumoniae NB001; assay: as above; conditions: Muller Hinton agar + Fields enrichment 5% by volume
Procedure: as §2

A. pleuropneumoniae Hi-1 = assay: as above; conditions: Actinobacillus pleuropneumoniae, HI1, Muller Hinton agar + Fields enrichment 5% by volume
Procedure: as §2

A. pleuropneumoniae 7H-3 = assay: as above; conditions: Actinobacillus pleuropneumoniae, 7H3, Muller Hinton agar + Fields enrichment 5% by volume
Procedure: as §2

A. pleuropneumoniae M-1 = assay: as above; conditions: Actinobacillus pleuropneumoniae, M1, Muller Hinton agar + Fields enrichment 5% by volume
Procedure: as §2

[10] = tested on: Histophilus somni 23N2359; assay: as above; conditions: Muller Hinton agar + Fields enrichment 5% by volume
Procedure: as §2

A. pleuropneumoniae YN = assay: as above; conditions: Actinobacillus pleuropneumoniae, Muller Hinton agar + Fields enrichment 5% by volume
Procedure: as §2

H. infulenzae IID986 = assay: MIC, Muller Hinton agar with sheep blood, 5% CO2 (Test Example 2); conditions: Haemophilus, Muller Hinton agar + sheep blood 5% by volume
H. infulenzae IID987 = assay: as above; conditions: Haemophilus, Muller Hinton agar + sheep blood 5% by volume
[11] = tested on: Streptococcus pneumoniae S-223; assay: as above; conditions: S223, Muller Hinton agar + sheep blood 5% by volume
H. infulenzae IID985 = assay: as above; conditions: Haemophilus, Muller Hinton agar + sheep blood 5% by volume
[12] = tested on: Staphylococcus aureus FDA209P; assay: MIC, Muller Hinton agar, multiple dilution method (Test Example 1); conditions: Muller Hinton agar medium
Procedure: (§3) According to the standard method of Japanese Society of Chemotherapy, the amycolamicin was measured for antimicrobial spectrum against various microorganisms including drug-resistant bacteria (e.g., methicilline resistant bacteria and vancomycin resistant bacteria) in the Muller Hinton agar medium by the multiple dilution method.

S. aureus MS9610 = assay: as above; conditions: Staphylococcus aureus, Muller Hinton agar medium
Procedure: as §3

S. aureus TY-04282(MRSA) = assay: as above; conditions: Staphylococcus aureus, Muller Hinton agar medium
Procedure: as §3

[13] = tested on: Enterococcus faecalis JCM 5803; assay: as above; conditions: JCM5803, Muller Hinton agar medium
Procedure: as §3

[14] = tested on: Ent. faecalis NCTC12201(VRE); assay: as above; conditions: Enterococcus faecalis, Muller Hinton agar medium
Procedure: as §3

[15] = tested on: Klebsiella pneumoniae PC1602; assay: as above; conditions: Muller Hinton agar medium
Procedure: as §3

S. aureus Smith = assay: as above; conditions: Staphylococcus aureus, Muller Hinton agar medium
Procedure: as §3

S. aureus MRSA No.5 = assay: as above; conditions: Staphylococcus aureus, Muller Hinton agar medium
Procedure: as §3

[16] = tested on: Ent faecium NCTCI12202(VRE); assay: as above; conditions: Enterococcus, Muller Hinton agar medium
Procedure: as §3

S. aureus MS16526(MRSA) = assay: as above; conditions: Staphylococcus aureus, Muller Hinton agar medium
Procedure: as §3

Escherichia coli NIHJ = assay: as above; conditions: Muller Hinton agar medium
Procedure: as §3

[17] = tested on: Ent. faecium NCTCI12204(VRE); assay: as above; conditions: Enterococcus faecium, Muller Hinton agar medium
Procedure: as §3

S. aureus MRSA No.17 = assay: as above; conditions: Staphylococcus aureus, Muller Hinton agar medium
Procedure: as §3

E. coli K-12 = assay: as above; conditions: Escherichia coli, K12, Muller Hinton agar medium
Procedure: as §3

[18] = tested on: Ent. faecalis NCTC12203(VRE); assay: as above; conditions: Enterococcus faecalis, Muller Hinton agar medium
Procedure: as §3

Ent. faecium JCM 5804 = assay: as above; conditions: Enterococcus faecium, JCM5804, Muller Hinton agar medium
Procedure: as §3

In the case of `C=C1CCC(OC2CC(O)(C(C)NC(=O)c3[nH]c(C)c(Cl)c3Cl)C(O)C(C)O2)C2C=CC(C)C(C(=O)C3=C(O)C(C(C)C)N(C4OC(C)C(OC(N)=O)C(OC(C)=O)C4OC)C3=O)C12` (stereo not drawn) [amycolamicin], the MIC [1] was 0.78 mg/L, the MIC [2] was 1.56 mg/L (≈ 1.66 µM) and the MIC (M. haemolytica N811) was 0.78 mg/L (≈ 0.83 µM). It also gave an MIC [3] of 0.78 mg/L (≈ 0.83 µM), an MIC (P. multocida TS-8) of 0.78 mg/L (≈ 0.83 µM) and an MIC (P. multocida Kobe) of 0.78 mg/L (≈ 0.83 µM). The MIC (P. multocida M-17) was 0.78 mg/L (≈ 0.83 µM), the MIC (H. infulenzae T196) was 0.2 mg/L and the MIC (H. infulenzae IID988) was 0.78 mg/L. For the same molecule, the MIC [4] was 1.56 mg/L, the MIC [5] was 1.56 mg/L and the MIC [6] was 1.56 mg/L. For the same molecule, the MIC (A. pleuropneumoniae CH-1) was 1.56 mg/L, the MIC (A. pleuropneumoniae 6H-8) was 1.56 mg/L and the MIC [7] was 1.56 mg/L. For the same molecule, the MIC [8] was 3.13 mg/L, the MIC [9] was 1.56 mg/L and the MIC (A. pleuropneumoniae Hi-1) was 3.13 mg/L. The MIC (A. pleuropneumoniae 7H-3) was 1.56 mg/L, the MIC (A. pleuropneumoniae M-1) was 0.78 mg/L and the MIC [10] was 0.2 mg/L. The MIC (A. pleuropneumoniae YN) was 0.78 mg/L, the MIC (H. infulenzae IID986) was 0.78 mg/L and the MIC (H. infulenzae IID987) was 0.78 mg/L. For the same molecule, the MIC [11] was 0.39 mg/L, the MIC (H. infulenzae IID985) was 0.78 mg/L and the MIC [12] was 0.39 mg/L (≈ 0.415 µM). The MIC (S. aureus MS9610) was 0.39 mg/L (≈ 0.415 µM), the MIC (S. aureus TY-04282(MRSA)) was 0.39 mg/L (≈ 0.415 µM) and the MIC [13] was 0.2 mg/L (≈ 0.213 µM). It also gave an MIC [14] of 0.1 mg/L (≈ 0.106 µM), an MIC [15] of 6.25 mg/L (≈ 6.65 µM) and an MIC (S. aureus Smith) of 0.39 mg/L (≈ 0.415 µM). For the same molecule, the MIC (S. aureus MRSA No.5) was 0.39 mg/L (≈ 0.415 µM), the MIC [16] was 0.78 mg/L (≈ 0.83 µM) and the MIC (S. aureus MS16526(MRSA)) was 0.39 mg/L (≈ 0.415 µM). It also gave an MIC (Escherichia coli NIHJ) of 12.5 mg/L (≈ 13.3 µM), an MIC [17] of 0.78 mg/L (≈ 0.83 µM) and an MIC (S. aureus MRSA No.17) of 0.39 mg/L (≈ 0.415 µM). The MIC (E. coli K-12) was 12.5 mg/L (≈ 13.3 µM), the MIC [18] was 0.2 mg/L (≈ 0.213 µM) and the MIC (Ent. faecium JCM 5804) was 0.78 mg/L (≈ 0.83 µM).
